In ChEMBL document CHEMBL1152196, “Benzimidazole- and benzoxazole-based inhibitors of Rho kinase” (Bioorg Med Chem Lett, 2008):

Legend:
[1] = Inhibition of PKA
[2] = target: T1, Rho-associated protein kinase 2 (Homo sapiens, UniProt O75116); assay: Inhibition of ROCK2
[3] = Metabolic stability in human liver microsomes; assay type: ADME, Microsome
CYP1A2 = target: T2, CYP1A2 (Homo sapiens, UniProt P05177); assay: Inhibition of CYP1A2 at 10 uM; assay type: ADME
T2 sequence (P05177 whole entry): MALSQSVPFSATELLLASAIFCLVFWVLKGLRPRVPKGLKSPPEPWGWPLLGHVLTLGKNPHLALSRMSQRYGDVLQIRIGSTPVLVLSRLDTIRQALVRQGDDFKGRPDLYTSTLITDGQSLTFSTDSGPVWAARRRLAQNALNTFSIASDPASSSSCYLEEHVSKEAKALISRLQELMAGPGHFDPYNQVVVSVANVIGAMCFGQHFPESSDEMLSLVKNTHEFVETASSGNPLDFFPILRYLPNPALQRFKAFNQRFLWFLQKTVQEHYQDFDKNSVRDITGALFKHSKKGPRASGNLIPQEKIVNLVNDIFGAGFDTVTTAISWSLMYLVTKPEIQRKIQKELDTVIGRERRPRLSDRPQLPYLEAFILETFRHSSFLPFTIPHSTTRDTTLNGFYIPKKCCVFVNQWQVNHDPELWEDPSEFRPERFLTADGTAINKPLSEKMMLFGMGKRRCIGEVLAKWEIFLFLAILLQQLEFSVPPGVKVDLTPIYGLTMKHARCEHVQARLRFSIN

[4] = target: T1, Rho-associated protein kinase 2; assay: Inhibition of ROCK2 assessed as myosin light chain phosphorylation by cell-based assay
CYP2C9 = CYP2C9 (Homo sapiens, UniProt P11712); assay: Inhibition of CYP2C9 at 10 uM; assay type: ADME
Sequence of CYP2C9 (P11712 whole entry): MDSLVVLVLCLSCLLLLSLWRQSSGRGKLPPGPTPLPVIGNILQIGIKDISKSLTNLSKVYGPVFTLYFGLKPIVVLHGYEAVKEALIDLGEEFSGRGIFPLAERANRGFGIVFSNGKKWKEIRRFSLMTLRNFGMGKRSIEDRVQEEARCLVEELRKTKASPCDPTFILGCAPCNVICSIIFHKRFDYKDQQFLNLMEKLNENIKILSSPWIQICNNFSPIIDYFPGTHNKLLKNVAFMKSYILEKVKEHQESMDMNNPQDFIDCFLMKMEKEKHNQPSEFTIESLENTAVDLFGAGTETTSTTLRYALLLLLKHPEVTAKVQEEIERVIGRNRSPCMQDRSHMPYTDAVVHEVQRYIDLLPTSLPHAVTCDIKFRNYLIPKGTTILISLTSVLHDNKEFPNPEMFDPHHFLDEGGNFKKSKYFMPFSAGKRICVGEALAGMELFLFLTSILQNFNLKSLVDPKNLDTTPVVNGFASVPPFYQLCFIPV

CYP3A4 = CYP3A4 (Homo sapiens, UniProt P08684); assay: Inhibition of CYP3A4 at 10 uM; assay type: ADME
Sequence of CYP3A4 (P08684 whole entry): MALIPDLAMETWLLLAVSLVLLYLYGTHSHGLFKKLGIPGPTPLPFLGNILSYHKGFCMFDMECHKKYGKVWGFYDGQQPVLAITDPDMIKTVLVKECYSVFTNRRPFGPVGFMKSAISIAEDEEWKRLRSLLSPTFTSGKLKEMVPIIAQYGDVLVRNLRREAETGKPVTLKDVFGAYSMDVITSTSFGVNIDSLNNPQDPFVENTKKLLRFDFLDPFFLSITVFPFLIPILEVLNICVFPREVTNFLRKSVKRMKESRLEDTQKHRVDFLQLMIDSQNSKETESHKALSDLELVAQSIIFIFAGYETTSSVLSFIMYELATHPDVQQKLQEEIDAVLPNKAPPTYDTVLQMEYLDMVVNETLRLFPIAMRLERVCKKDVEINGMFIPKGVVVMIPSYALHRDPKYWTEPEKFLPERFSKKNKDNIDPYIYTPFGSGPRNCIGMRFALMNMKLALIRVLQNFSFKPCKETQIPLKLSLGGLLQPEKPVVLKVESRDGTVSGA

CYP2D6 = CYP2D6 (Homo sapiens, UniProt P10635); assay: Inhibition of CYP2D6 at 10 uM; assay type: ADME
Sequence of CYP2D6 (P10635 whole entry): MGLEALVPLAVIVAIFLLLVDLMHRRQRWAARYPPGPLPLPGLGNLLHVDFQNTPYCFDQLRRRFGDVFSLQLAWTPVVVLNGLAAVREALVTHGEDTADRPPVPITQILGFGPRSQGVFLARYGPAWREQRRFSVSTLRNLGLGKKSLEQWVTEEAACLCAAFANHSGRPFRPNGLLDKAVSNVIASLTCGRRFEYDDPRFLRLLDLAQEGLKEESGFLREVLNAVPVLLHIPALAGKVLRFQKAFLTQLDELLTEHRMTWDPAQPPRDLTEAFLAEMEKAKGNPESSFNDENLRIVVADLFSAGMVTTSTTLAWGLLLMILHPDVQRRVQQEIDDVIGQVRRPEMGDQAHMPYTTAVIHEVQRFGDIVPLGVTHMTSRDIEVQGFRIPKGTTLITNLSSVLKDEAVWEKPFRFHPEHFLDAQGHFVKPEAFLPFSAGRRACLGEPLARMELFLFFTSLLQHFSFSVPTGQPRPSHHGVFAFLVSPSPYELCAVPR

[5] = AUC in rat at 2 mg/kg, po; assay type: ADME, organism-based; parameters: dose 2 mg/kg, route oral; conditions: plasma
[6] = Volume of distribution at steady state in rat at 1 mg/kg, iv or 2 mg/kg, po; assay type: ADME, organism-based; conditions: in vivo, read-out: Vdss
[7] = Clearance in rat at 1 mg/kg, iv or 2 mg/kg, po; assay type: ADME, organism-based; conditions: in vivo
[8] = Half life in rat at 1 mg/kg, iv or 2 mg/kg, po; assay type: ADME, organism-based; conditions: in vivo
[9] = Cmax in rat at 2 mg/kg, po; assay type: ADME, organism-based; parameters: dose 2 mg/kg, route oral; conditions: in vivo
[10] = Oral bioavailability in rat at 2 mg/kg; assay type: ADME, organism-based; conditions: in vivo
[11] = Selectivity for ROCK2 over PKA
[12] = target: Mitogen-activated protein kinase 8 (Homo sapiens, UniProt P45983); assay: Inhibition of JNK1
Sequence of Mitogen-activated protein kinase 8 (P45983 whole entry): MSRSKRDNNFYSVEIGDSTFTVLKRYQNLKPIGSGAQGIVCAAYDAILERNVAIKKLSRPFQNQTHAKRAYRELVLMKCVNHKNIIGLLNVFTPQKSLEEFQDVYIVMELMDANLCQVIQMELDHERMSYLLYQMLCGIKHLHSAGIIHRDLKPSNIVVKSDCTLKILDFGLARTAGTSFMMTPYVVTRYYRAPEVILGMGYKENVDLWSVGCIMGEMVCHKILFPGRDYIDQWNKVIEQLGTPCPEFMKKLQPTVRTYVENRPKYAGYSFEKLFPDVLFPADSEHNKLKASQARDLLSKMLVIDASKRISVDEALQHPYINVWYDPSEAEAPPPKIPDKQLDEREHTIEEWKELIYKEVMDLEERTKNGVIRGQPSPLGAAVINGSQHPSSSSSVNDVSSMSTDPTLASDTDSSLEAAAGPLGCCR

[13] = Inhibition of p38 kinase
[14] = target: RAC-alpha serine/threonine-protein kinase (Homo sapiens, UniProt P31749); assay: Inhibition of Akt1
Sequence of RAC-alpha serine/threonine-protein kinase (P31749 whole entry): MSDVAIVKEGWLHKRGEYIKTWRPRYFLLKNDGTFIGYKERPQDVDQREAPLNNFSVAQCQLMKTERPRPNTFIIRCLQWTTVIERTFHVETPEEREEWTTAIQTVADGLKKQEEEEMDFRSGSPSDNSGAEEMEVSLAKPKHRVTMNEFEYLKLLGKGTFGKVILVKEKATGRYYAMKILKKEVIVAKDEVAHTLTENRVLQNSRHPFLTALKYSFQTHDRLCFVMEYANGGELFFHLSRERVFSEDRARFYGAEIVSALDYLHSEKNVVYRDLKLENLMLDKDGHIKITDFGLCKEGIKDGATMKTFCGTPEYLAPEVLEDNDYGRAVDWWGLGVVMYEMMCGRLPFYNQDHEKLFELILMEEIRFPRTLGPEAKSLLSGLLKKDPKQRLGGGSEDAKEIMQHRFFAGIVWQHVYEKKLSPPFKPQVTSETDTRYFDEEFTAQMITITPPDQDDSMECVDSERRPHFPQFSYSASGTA

[15] = Inhibition of MRCK
[16] = target: Mitogen-activated protein kinase 10 (Homo sapiens, UniProt P53779); assay: Inhibition of JNK3
Sequence of Mitogen-activated protein kinase 10 (P53779 whole entry): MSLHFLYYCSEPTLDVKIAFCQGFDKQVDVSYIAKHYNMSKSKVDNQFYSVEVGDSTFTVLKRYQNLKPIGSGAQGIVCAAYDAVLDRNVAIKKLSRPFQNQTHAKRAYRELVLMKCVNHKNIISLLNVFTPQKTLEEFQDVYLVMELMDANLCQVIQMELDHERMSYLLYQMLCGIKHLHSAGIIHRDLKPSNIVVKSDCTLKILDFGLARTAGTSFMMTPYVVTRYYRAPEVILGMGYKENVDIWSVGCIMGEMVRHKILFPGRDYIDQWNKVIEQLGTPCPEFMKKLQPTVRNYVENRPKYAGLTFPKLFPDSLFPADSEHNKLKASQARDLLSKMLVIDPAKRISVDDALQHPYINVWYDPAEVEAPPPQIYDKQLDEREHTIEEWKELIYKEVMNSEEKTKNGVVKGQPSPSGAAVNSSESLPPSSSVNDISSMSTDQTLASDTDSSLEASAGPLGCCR

T1 sequence (O75116 whole entry): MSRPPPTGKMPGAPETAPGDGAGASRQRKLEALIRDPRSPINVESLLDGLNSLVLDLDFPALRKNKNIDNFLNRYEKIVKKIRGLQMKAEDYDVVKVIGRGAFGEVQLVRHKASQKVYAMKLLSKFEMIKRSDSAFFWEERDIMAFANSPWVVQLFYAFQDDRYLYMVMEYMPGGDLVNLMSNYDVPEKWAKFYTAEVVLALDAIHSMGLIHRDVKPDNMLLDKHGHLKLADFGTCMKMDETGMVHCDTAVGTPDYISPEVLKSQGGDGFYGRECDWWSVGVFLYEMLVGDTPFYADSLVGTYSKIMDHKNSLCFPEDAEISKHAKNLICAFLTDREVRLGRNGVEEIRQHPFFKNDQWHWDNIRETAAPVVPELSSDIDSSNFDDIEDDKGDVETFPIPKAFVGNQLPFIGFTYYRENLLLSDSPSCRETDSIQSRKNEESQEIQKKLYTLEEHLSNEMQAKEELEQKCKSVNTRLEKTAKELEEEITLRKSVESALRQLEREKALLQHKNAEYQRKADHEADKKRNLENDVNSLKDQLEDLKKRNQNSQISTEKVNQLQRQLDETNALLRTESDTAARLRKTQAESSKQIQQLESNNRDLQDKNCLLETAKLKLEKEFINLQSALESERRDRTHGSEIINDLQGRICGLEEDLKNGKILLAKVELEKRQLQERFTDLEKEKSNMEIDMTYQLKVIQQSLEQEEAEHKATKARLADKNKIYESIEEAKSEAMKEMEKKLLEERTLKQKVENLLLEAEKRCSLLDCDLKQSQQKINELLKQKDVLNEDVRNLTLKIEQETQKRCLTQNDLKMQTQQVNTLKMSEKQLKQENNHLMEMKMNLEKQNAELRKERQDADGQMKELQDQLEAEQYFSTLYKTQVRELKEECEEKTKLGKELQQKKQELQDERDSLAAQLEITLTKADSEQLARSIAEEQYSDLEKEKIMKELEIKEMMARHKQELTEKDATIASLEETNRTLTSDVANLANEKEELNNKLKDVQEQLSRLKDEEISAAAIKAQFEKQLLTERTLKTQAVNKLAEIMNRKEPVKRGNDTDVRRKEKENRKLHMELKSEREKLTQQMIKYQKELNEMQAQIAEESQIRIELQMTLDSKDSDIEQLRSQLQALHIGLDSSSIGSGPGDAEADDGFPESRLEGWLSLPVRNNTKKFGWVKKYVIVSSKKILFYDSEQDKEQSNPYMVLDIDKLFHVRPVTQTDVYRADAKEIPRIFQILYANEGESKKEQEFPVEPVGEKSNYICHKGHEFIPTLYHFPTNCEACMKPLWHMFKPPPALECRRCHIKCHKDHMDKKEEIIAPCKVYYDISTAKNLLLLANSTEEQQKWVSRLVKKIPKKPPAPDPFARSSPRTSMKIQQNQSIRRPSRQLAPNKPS

SMILES	IC50 [1] [nM]	IC50 [2] [nM]	half-life [3] [min]	IC50 [4] [nM]	further results
c1ccc2c(c1)CC(c1nc3ccc(-c4ccncc4)cc3[nH]1)CO2 (stereo unspecified)	317	2	29	< 6	inhibition at 10 µM (CYP1A2): 90%; inhibition at 10 µM (CYP2C9): 95%; inhibition at 10 µM (CYP3A4): 96%; inhibition at 10 µM (CYP2D6): 92%
COc1ccc2c(c1)CC(c1nc3ccc(-c4ccnc(N)n4)cc3[nH]1)CO2 (stereo unspecified)	602		28	99	AUC [5]: 1.9 µM·h; Vd [6]: 0.89 L/kg; clearance [7]: 17 mL/min/kg; half-life [8]: 138 min; Cmax [9]: 900 nM; bioavailability [10]: 35%; fold change (FC) [11]: 240
COC(=O)c1ccc2c(c1)CC(c1nc3ccc(-c4ccnc(N)n4)cc3[nH]1)CO2 (stereo unspecified)	10200	6	18	271	
COC(=O)c1ccc2c(c1)CC(c1nc3ccc(-c4ccnc(N)n4)cc3o1)CO2 (stereo unspecified)		24			
c1ccc2c(c1)CC(c1nc3ccc(-c4cn[nH]c4)cc3[nH]1)CO2 (stereo unspecified)	168	27	20	86	inhibition at 10 µM (CYP1A2): 51%; inhibition at 10 µM (CYP2C9): 84%; inhibition at 10 µM (CYP3A4): 47%; inhibition at 10 µM (CYP2D6): 84%
Nc1nccc(-c2ccc3nc(C4COc5ccc(C(=O)NCc6ccccc6)cc5C4)[nH]c3c2)n1 (stereo unspecified)	75	< 1	25	23	
Nc1nccc(-c2ccc3nc(C4COc5ccc(C(=O)NC6CC6)cc5C4)[nH]c3c2)n1 (stereo unspecified)	669	< 1	79	212	
Nc1nccc(-c2ccc3nc(C4COc5ccc(F)cc5C4)oc3c2)n1 (stereo unspecified)	2910	15	91	28	
CC(C)Oc1ccc2c(c1)CC(c1nc3ccc(-c4ccnc(N)n4)cc3o1)CO2 (stereo unspecified)		294			
Nc1nccc(-c2ccc3nc(C4COc5ccccc5C4)oc3c2)n1 (stereo unspecified)	1340	27	57		inhibition at 10 µM (CYP1A2): 0%; inhibition at 10 µM (CYP2C9): -8%; inhibition at 10 µM (CYP3A4): -6%; inhibition at 10 µM (CYP2D6): -4%
Cc1[nH]ncc1-c1ccc2nc(C3COc4ccccc4C3)[nH]c2c1 (stereo unspecified)	122	9	30		

Now from value to molecule, other results behind:

IC50 [1] [nM]	IC50 [2] [nM]	half-life [3] [min]	IC50 [4] [nM]	SMILES	further results
397	< 1		< 6	COc1ccc2c(c1)CC(c1nc3c(F)cc(-c4ccnc(N)n4)cc3[nH]1)CO2 (stereo unspecified)	AUC [5]: 2.2 µM·h; IC50 [12]: 14100 nM; Vd [6]: 0.63 L/kg; IC50 [13]: > 20000 nM; clearance [7]: 12 mL/min/kg; half-life [8]: 84 min; IC50 [14]: 5000 nM; IC50 [15]: 1100 nM; Cmax [9]: 740 nM; bioavailability [10]: 29%; IC50 [16]: 16800 nM
778	9	70	533	Cc1[nH]ncc1-c1ccc2nc(C3COc4ccccc4C3)oc2c1 (stereo unspecified)	
6390	78	25		Cc1ccc2c(c1)CC(c1nc3ccc(-c4ccnc(N)n4)cc3o1)CO2 (stereo unspecified)	
270	6	45		Nc1nccc(-c2ccc3nc(C4COc5ccc(F)cc5C4)[nH]c3c2)n1 (stereo unspecified)	
	2	34	46	COc1ccc2c(c1)CC(c1nc3ccc(-c4ccnc(N)n4)cc3o1)CO2 (stereo unspecified)	AUC [5]: 6.6 µM·h; Vd [6]: 1.6 L/kg; clearance [7]: 8.4 mL/min/kg; half-life [8]: 156 min; Cmax [9]: 970 nM; bioavailability [10]: 63%; fold change (FC) [11]: 950
198	8	44	66	Nc1nccc(-c2ccc3nc(C4COc5ccccc5C4)[nH]c3c2)n1 (stereo unspecified)	inhibition at 10 µM (CYP1A2): 31%; inhibition at 10 µM (CYP2C9): 13%; inhibition at 10 µM (CYP3A4): -3%; inhibition at 10 µM (CYP2D6): 15%
6380	296			CC(C)Oc1ccc2c(c1)CC(c1nc3ccc(-c4ccnc(N)n4)cc3[nH]1)CO2 (stereo unspecified)	
1210	21	40	330	c1ccc2c(c1)CC(c1nc3ccc(-c4cn[nH]c4)cc3o1)CO2 (stereo unspecified)	inhibition at 10 µM (CYP1A2): 27%; inhibition at 10 µM (CYP2C9): 80%; inhibition at 10 µM (CYP3A4): 15%; inhibition at 10 µM (CYP2D6): 41%
